“And” between values parts separate entries of the source, which are not always exact repeats. Identical values can stand only once. Like-named read-outs stand apart in the source and are kept apart here.
Experiments:
[1] = test system: BCR-ABL transcript level; assay: Molecular response (MMR, BCR-ABL transcript level ≤ 0.1% IS) to nilotinib treatment; assay type: in vivo, CP-CML patients
Experimental: The response was considered optimal when a MMR was achieved within 12 months of nilotinib treatment. MMR was defined as a BCR-ABL transcript level of ≤ 0.1% on the International Scale. For patients already on treatment at entry, the time until MMR was obtained retrospectively from their medical files.
Comparison of adherence (continuous) and Cmin values (either grouped into quartiles [Q1 vs. Q2–Q4] or based on a previously reported threshold concentration of 490 μg/L) among response groups (time to MMR after start of nilotinib treatment ≤ 12 months vs. > 12 months, stratified by line of treatment) was performed using Mann-Whitney tests and Fisher’s exact tests. Time to MMR was assessed using the Kaplan Meier method with logrank test. In these outcome analyses, the mean of each measure of adherence and Cmin values was used. For all analyses, a two-tailed significance level of 0.05 was used. p values below this level were considered statistically significant. All statistical analyses were performed using SPSS version 22 for Windows (IBM Corp, Armonk, NY, USA).

[2] = Nilotinib treatment discontinuation during the 12-month study period; assay type: in vivo, CP-CML patients; conditions: of 68 patients
Excerpt: In this multicenter prospective observational study, conducted between August 2013 and April 2017 in six Dutch hospitals, CP-CML patients using nilotinib were followed for 12 months. Initially, it was the aim only to include newly diagnosed CP-CML patients starting nilotinib treatment. […] The study was registered in the Netherlands Trial Register (NTR3992) and the protocol has been published previously.
Information on disease characteristics, medical history, co-medication, and nilotinib treatment was obtained from the patient’s medical file and pharmacy dispensing record.

[3] = test system: BCR-ABL transcript level; set-up: method as in PMID 26837842; conditions: 5-year update of the ENESTnd trial, first-line; cited from earlier work
[4] = Patient-reported side effects of nilotinib (questionnaire, 5-point Likert scale); assay type: in vivo, CP-CML patients
Excerpt: At study entry, patients completed a self-administered composite questionnaire including demographic characteristics (date of birth, gender, education, living status, and working status), use of St. John’s wort, use of grapefruit (juice), quality of life (Short Form-12 Health Survey [SF-12]), side effects, and beliefs about medication in general (Beliefs about Medicines Questionnaire [BMQ]-General) and specifically about nilotinib (BMQ-Specific). The questionnaire at 3, 6, and 12 months also included the MARS-5 and questions on nilotinib intake in relation to food intake, use of tools to prevent forgetting, illness perception (Brief Illness Perception Questionnaire [Brief IPQ]), and information satisfaction (Satisfaction with Information about Medicines Scale [SIMS])[51, 52]. Education was assessed as the highest level completed, and dichotomized into higher education (higher general secondary education or above) and lower education. Living status was categorized as living alone or not living alone, and work status as having paid work or not. Questions on side effects were based on literature data and concerned specific nilotinib toxicities occurring in > 10% of patients (headache, nausea, rash, itching, myalgia, fatigue). Answers were scored on a 5-point Likert scale (0 = not at all to 4 = very much). Symptoms scored as “3 = a lot” or “4 = very much” were considered “severe.”

[5] = Nilotinib trough plasma concentration (Cmin) from dried blood spot self-sampling; assay type: in vivo, CP-CML patients
Experimental: Blood sampling was performed by the patient at home by means of a validated dried blood spot (DBS) sampling method. Using the DBS, nilotinib plasma concentrations were calculated as previously reported. Patients were instructed to sample blood at predose at baseline (if already on nilotinib treatment), 3, 6, and 12 months from study entry. The time of blood sampling, time of last nilotinib intake, and body weight were recorded in patient diaries. Cmin samples were defined as those taken between 8 and 16 h after the prior dose.
Individual measures of exposure were obtained using averaged Cmin values for individual patients based on the measurements obtained at baseline, 3, 6, and 12 months. Intra-patient variability in nilotinib Cmin was analyzed in patients who had ≥ 2 analyzed samples available and expressed as the average coefficient of variation (CV%). Missing Cmin values were imputed with the mean of the observed Cmin values for the corresponding dose. Univariable linear regression was used to identify variables (one by one) related to nilotinib Cmin. GEE was used to identify whether the occurrence of side effects was related to observed nilotinib Cmin values (without imputation) obtained at baseline, 3, 6, and 12 months.

[6] = second/third-line nilotinib treatment
[7] = 42 patients with ≥ 2 analyzed samples

- Observed nilotinib Cmin, mean ± SD ([5]; 150 mg BID (n = 15 samples)): 835 ± 412 ng/mL
- Observed nilotinib Cmin, median (IQR) ([5]; 150 mg BID (n = 15 samples)): 656 (548–1042) μg/L
- Observed nilotinib Cmin, range ([5]; 150 mg BID (n = 15 samples)): 390 to 1793 ng/mL
- Observed nilotinib Cmin, mean ± SD ([5]; 300 mg BID (n = 85 samples)): 1021 ± 472 ng/mL
- Observed nilotinib Cmin, median (IQR) ([5]; 300 mg BID (n = 85 samples)): 954 (654–1274) μg/L
- Observed nilotinib Cmin, range ([5]; 300 mg BID (n = 85 samples)): 196 to 2413 ng/mL
- Observed nilotinib Cmin, mean ± SD ([5]; 300 mg QD (n = 6 samples)): 567 ± 110 ng/mL
- Observed nilotinib Cmin, median (IQR) ([5]; 300 mg QD (n = 6 samples)): 589 (450–658) μg/L
- Observed nilotinib Cmin, range ([5]; 300 mg QD (n = 6 samples)): 418 to 702 ng/mL
- Observed nilotinib Cmin, mean ± SD ([5]; 400 mg BID (n = 25 samples)): 1497 ± 597 ng/mL
- Observed nilotinib Cmin, median (IQR) ([5]; 400 mg BID (n = 25 samples)): 1253 (1054–2053) μg/L
- Observed nilotinib Cmin, range ([5]; 400 mg BID (n = 25 samples)): 342 to 2540 ng/mL
- Observed nilotinib Cmin, mean ± SD ([5]; 400 mg QD (n = 6 samples)): 536 ± 57 ng/mL
- Observed nilotinib Cmin, median (IQR) ([5]; 400 mg QD (n = 6 samples)): 552 (517–570) μg/L
- Observed nilotinib Cmin, range ([5]; 400 mg QD (n = 6 samples)): 422 to 574 ng/mL
- intra-patient variability, %CV in Cmin (mean ± SD) [5, 7]: 25 ± 19%
- intra-patient variability, %CV in Cmin, median [5, 7]: 20%
- intra-patient variability, %CV in Cmin, range [5, 7]: 1–91%
- patients with nilotinib Cmin generally above the therapeutic target ([5]; in vivo): 95%
- range of Cmin values below the threshold concentration of 490 μg/L ([5]; nine patients): 196 to 467 ng/mL
- patients with a Cmin below the threshold concentration of 490 μg/L at any time ([5]; nine patients of 56): 16%
- Cmin median (IQR) ([5]; patients reporting Fatigue: Mild (n = 72)): 974 (644–1373) μg/L
- Cmin median (IQR) ([5]; patients reporting Fatigue: None (n = 32)): 777 (561–1087) μg/L
- Cmin median (IQR) ([5]; patients reporting Fatigue: Severe (n = 25), p any .007, severe .023): 1160 (787–1468) μg/L
- Cmin median (IQR) ([5]; patients reporting Headache: Mild (n = 40)): 905 (625–1254) μg/L
- Cmin median (IQR) ([5]; patients reporting Headache: None (n = 91)): 970 (618–1288) μg/L
- Cmin median (IQR) ([5]; patients reporting Headache: Severe (n = 1)): 2413 µg/L
- Cmin median (IQR) ([5]; patients reporting Itching: Mild (n = 61)): 923 (740–1243) μg/L
- Cmin median (IQR) ([5]; patients reporting Itching: None (n = 61)): 954 (565–1283) μg/L
- Cmin median (IQR) ([5]; patients reporting Itching: Severe (n = 11), p severe .012): 1260 (1021–1800) μg/L
- Cmin median (IQR) ([5]; patients reporting Myalgia: Mild (n = 62)): 1031 (765–1380) μg/L
- Cmin median (IQR) ([5]; patients reporting Myalgia: None (n = 56)): 857 (574–1219) μg/L
- Cmin median (IQR) ([5]; patients reporting Myalgia: Severe (n = 12)): 840 (658–1553) μg/L
- Cmin median (IQR) ([5]; patients reporting Nausea: Mild (n = 27)): 1210 (750–1798) μg/L
- Cmin median (IQR) ([5]; patients reporting Nausea: None (n = 104)): 945 (615–1249) μg/L
- Cmin median (IQR) ([5]; patients reporting Nausea: Severe (n = 1)): 648 µg/L
- Cmin median (IQR) ([5]; patients reporting Rash: None (n = 75)): 964 (598–1338) μg/L
- Cmin median (IQR) ([5]; patients reporting Rash: Severe (n = 12)): 1157 (764–1540) μg/L
SMILES: Cc1cn(-c2cc(NC(=O)c3ccc(C)c(Nc4nccc(-c5cccnc5)n4)c3)cc(C(F)(F)F)c2)cn1 [nilotinib]
- 1-year MMR rate according to nilotinib Cmin ([1]; All patients, Cmin quartile Q1 (< 635 μg/L)): 56% (5/9)
- 1-year MMR rate according to nilotinib Cmin ([1]; All patients, Cmin quartile Q2 (Q2–Q3 635–< 1346 μg/L)): 88% (7/8)
- 1-year MMR rate according to nilotinib Cmin ([1]; All patients, Cmin quartile Q3 (Q2–Q3 635–< 1346 μg/L)): 75% (12/16)
- 1-year MMR rate according to nilotinib Cmin ([1]; All patients, Cmin quartile Q4 (≥ 1346 μg/L)): 30% (3/10)
- median time to MMR12 ([1]; Cmin quartile Q1, n = 5): 6.4 months
- median time to MMR12 ([1]; Cmin quartile Q2, n = 7): 6.7 months
- median time to MMR12 ([1]; Cmin quartile Q3, n = 12): 4.3 months
- median time to MMR12 ([1]; Cmin quartile Q4, n = 3): 2.8 months
- 1-year MMR rate according to nilotinib Cmin ([1]; Subpopulation 1A/1B (1st line treatment), Q1 (< 635 μg/L)): 71% (5/7)
- 1-year MMR rate according to nilotinib Cmin ([1]; Subpopulation 1A/1B (1st line treatment), Q2): 100% (5/5)
- 1-year MMR rate according to nilotinib Cmin ([1]; Subpopulation 1A/1B (1st line treatment), Q3): 73% (8/11)
- 1-year MMR rate according to nilotinib Cmin ([1]; Subpopulation 1A/1B (1st line treatment), Q4 (≥ 1346 μg/L)): 40% (2/5)
- 1-year MMR rate according to nilotinib Cmin ([1]; Subpopulation 2A/2B (≥ 2nd line treatment), Q1 (< 635 μg/L)): 0% (0/2)
- 1-year MMR rate according to nilotinib Cmin ([1]; Subpopulation 2A/2B (≥ 2nd line treatment), Q3): 80% (4/5)
- 1-year MMR rate according to nilotinib Cmin ([1]; Subpopulation 2A/2B (≥ 2nd line treatment), Q4 (≥ 1346 μg/L)): 20% (1/5)
- mean time to MMR12 ([1]; first-line nilotinib treatment): 5.9 ± 3.2 months
- median time to MMR12 ([1]; first-line nilotinib treatment): 6.1 months
- time to MMR12, range ([1]; first-line nilotinib treatment): 1.2–12.9 months
- 1-year MMR rate ([1]; first-line nilotinib treatment (subpopulations 1A/1B), 20/28): 71%
- overall 1-year MMR rate ([1]; range over lines of treatment): 47 to 71%
- mean time to MMR12 [1, 6]: 5.8 ± 4.4 months
- median time to MMR12 [1, 6]: 3.7 months
- time to MMR12, range [1, 6]: 2.6–12.4 months
- 1-year MMR rate ([1]; second/third-line nilotinib treatment (subpopulations 2A/2B), 7/15): 47%
- number of patients who discontinued nilotinib treatment due to progression [2]: 4
- number of patients who discontinued nilotinib treatment due to side effects [2]: 6
- 1-year MMR rate [3]: 55%
- Fatigue, % of patients experiencing (any severity) [4]: About 75%
- Itching, % of patients reporting (any severity) [4]: 59%
- Myalgia, % of patients reporting (any severity) [4]: 54%
- Rash, % of patients reporting (any severity) [4]: 43%
- Fatigue, % mild ([4]; mild = a little bit/rather): 54.9%
- Headache, % mild ([4]; mild = a little bit/rather): 35.8%
- Itching, % mild ([4]; mild = a little bit/rather): 51.9%
- Myalgia, % mild ([4]; mild = a little bit/rather): 48.1%
- Nausea, % mild ([4]; mild = a little bit/rather): 20.4%
- Rash, % mild ([4]; mild = a little bit/rather): 35.2%
- Fatigue, % severe ([4]; severe = a lot/very much): 20% and 19.6%
- Headache, % severe ([4]; severe = a lot/very much): 1.9%
- Itching, % severe ([4]; severe = a lot/very much): 7.4%
- Myalgia, % severe ([4]; severe = a lot/very much): 6% and 5.8%
- Nausea, % severe ([4]; severe = a lot/very much): 1.9%
- Rash, % severe ([4]; severe = a lot/very much): 7.4%

Reference: article PMC7419465, “Response and Adherence to Nilotinib in Daily practice (RAND study): an in-depth observational study of chronic myeloid leukemia patients treated with nilotinib” (European Journal of Clinical Pharmacology, 2020)
